Consider ten molecules from ChEMBL document CHEMBL2311349, “Evidence for a new binding mode to GSK-3: allosteric regulation by the marine compound palinurin” (Eur J Med Chem, 2013).

Molecules are shown by their SMILES. Calls of active or inactive are those of the source. The calls are words filed in the database; no cut-off is given here. A value given as a limit tells only on which side of the number the result lay.

Data set [1] concerns the target T1, Glycogen synthase kinase-3 beta (Homo sapiens, UniProt P49841). The experiment in a line: Inhibition of human recombinant GSK-3beta using GS2 peptide as substrate and [gamma33P]-ATP after 30 mins by scintillation counting.
Target sequence in this assay (P49841 whole entry): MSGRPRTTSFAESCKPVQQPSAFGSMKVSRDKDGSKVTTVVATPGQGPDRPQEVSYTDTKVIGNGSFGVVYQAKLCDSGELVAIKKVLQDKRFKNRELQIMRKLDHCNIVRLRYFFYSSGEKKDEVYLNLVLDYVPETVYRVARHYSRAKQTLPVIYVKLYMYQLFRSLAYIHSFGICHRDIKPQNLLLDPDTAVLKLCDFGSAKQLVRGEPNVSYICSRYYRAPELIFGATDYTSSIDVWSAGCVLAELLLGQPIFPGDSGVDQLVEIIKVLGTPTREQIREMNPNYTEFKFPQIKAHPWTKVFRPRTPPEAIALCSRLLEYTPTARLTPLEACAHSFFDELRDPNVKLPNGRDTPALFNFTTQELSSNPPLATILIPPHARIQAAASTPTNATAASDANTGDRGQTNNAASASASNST
Data set [2] has as its target T1, Glycogen synthase kinase-3 beta. As to the kind of experiment: Inhibition of human recombinant GSK-3beta using GS2 peptide as substrate and [gamma33P]-ATP at 50 uM after 30 mins by scintillation counting.
Target sequence in this assay (P49841 whole entry, looked up): as the sequence (P49841 whole entry) above
The target is the same in data set [3]. To be noted: SH-SY5Y, 15 to 200 uM.
Target sequence in this assay (P49841 whole entry, looked up): as the sequence (P49841 whole entry) above
Description: Inhibition of GSK-3beta in human SH-SY5Y cells assessed as reduction of tau phosphorylation at 15 to 200 uM after 18 hrs by ELISA sandwich method
Data set [4] addresses Casein kinase II (Homo sapiens, UniProt P67870+P68400+P19784). The experiment in a line: (§1) Inhibition of human recombinant CK2 using GS2 peptide as substrate and [gamma33P]-ATP after 30 mins by scintillation counting. It counts as protein-complex assay.
Data set [5] has as its target Casein kinase II (Homo sapiens, UniProt P19784+P67870+P68400). Described as §1. It counts as protein-complex assay.
Data set [6] can be described thus: Inhibition of human recombinant MAPK using […] as substrate and [gamma33P]-ATP after 15 mins by scintillation counting.
The target in data set [7] is Cyclin-dependent kinase 1 (Homo sapiens, UniProt P06493). As to the kind of experiment: Inhibition of human recombinant CDK1 using histone H1 as substrate and [gamma33P]-ATP after 15 mins by scintillation counting.
The target of data set [8] is Glycogen synthase kinase-3 alpha (Homo sapiens, UniProt P49840). As to the kind of experiment: Inhibition of human recombinant GSK-3alpha using GS2 peptide as substrate and [gamma33P]-ATP after 12 mins by scintillation counting.
In data set [9] the target is Cyclin-dependent kinase 5 (Homo sapiens, UniProt Q00535). The experiment in a line: Inhibition of human recombinant CDK5 using histone H1 as substrate and [gamma33P]-ATP after 20 mins by scintillation counting.
Data set [10] is described as follows: Cytotoxicity against human SH-SY5Y cells assessed as intracellular LDH level after 18 hrs. It counts as cell-based.

Cyclin-dependent kinase 1, sequence (P06493 whole entry): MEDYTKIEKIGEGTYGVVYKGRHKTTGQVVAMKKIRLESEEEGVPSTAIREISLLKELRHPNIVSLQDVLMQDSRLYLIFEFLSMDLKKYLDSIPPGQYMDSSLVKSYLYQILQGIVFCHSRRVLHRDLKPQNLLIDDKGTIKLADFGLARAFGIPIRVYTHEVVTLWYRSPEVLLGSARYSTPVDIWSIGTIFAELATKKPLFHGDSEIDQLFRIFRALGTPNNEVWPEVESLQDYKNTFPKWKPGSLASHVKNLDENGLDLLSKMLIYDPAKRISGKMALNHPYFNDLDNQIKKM
Cyclin-dependent kinase 5, sequence (Q00535 whole entry): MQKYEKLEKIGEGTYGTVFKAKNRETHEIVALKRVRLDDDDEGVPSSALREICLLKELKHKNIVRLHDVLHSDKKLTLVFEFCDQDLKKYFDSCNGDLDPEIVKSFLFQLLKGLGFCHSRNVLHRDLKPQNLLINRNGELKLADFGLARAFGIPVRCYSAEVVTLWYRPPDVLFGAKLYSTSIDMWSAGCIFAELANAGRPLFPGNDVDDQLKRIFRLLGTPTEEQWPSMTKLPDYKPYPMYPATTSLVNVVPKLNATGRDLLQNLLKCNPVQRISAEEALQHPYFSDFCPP
Casein kinase II (Homo sapiens, UniProt P19784+P67870+P68400), sequence (P67870 whole entry): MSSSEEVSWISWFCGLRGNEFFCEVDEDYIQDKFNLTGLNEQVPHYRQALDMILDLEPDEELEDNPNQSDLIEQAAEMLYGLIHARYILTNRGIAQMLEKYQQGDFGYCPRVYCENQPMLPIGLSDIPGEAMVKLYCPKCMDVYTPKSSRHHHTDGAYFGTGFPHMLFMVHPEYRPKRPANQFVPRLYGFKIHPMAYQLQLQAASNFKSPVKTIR
Casein kinase II (Homo sapiens, UniProt P19784+P67870+P68400), sequence (P68400 whole entry): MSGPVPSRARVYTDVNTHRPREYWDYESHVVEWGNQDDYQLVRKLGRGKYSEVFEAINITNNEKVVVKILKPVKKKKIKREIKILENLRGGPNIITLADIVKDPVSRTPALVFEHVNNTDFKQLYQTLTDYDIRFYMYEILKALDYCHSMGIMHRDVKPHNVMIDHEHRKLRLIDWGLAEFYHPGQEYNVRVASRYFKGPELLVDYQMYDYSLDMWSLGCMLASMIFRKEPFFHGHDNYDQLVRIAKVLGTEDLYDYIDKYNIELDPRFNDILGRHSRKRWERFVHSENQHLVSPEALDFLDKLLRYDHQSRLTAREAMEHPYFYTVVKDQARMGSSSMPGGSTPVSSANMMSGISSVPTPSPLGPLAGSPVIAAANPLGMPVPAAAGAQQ
Casein kinase II (Homo sapiens, UniProt P19784+P67870+P68400), sequence (P19784 whole entry): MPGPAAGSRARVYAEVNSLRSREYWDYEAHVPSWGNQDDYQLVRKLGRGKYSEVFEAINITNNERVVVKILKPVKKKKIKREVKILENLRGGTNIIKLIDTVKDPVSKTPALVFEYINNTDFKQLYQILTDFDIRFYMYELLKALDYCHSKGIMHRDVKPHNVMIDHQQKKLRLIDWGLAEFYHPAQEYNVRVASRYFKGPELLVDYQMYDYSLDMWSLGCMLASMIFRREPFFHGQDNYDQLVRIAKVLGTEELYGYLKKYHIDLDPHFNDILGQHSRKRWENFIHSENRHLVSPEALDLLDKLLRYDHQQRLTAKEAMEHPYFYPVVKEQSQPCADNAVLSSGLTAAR
Casein kinase II (Homo sapiens, UniProt P67870+P68400+P19784), sequence (P67870 whole entry): as the sequence (P67870 whole entry) above
Casein kinase II (Homo sapiens, UniProt P67870+P68400+P19784), sequence (P68400 whole entry): as the sequence (P68400 whole entry) above
Casein kinase II (Homo sapiens, UniProt P67870+P68400+P19784), sequence (P19784 whole entry): as the sequence (P19784 whole entry) above
Glycogen synthase kinase-3 alpha, sequence (P49840 whole entry): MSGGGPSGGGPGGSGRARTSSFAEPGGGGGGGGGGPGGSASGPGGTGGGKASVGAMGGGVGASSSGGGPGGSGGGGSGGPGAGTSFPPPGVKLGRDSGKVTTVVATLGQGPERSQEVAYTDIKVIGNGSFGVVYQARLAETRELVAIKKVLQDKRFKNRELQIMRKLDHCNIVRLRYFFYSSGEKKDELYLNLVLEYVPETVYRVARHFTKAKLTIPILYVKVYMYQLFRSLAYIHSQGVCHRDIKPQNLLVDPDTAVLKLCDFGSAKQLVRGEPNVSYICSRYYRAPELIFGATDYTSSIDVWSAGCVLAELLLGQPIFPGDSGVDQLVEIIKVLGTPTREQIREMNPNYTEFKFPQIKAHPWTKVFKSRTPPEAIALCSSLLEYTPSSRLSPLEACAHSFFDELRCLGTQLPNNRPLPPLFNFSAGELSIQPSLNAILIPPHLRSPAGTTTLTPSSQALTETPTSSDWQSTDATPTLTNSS

The inhibition is the change of the read-out against control, counted positive when it falls. For `CCCCCCCCCC(=O)OC[C@H](O)[C@H]1OC(=O)C(O)=C1O`, the IC50 in data set [1] (read-out: IC50) worked out at 6.1 µM. Besides, in data set [2], the inhibition worked out at 86%.

As for `CCCCCCCC(=O)OC[C@H](O)[C@H]1OC(=O)C(O)=C1O`, the IC50 is more than 50 µM in data set [1] (read-out: IC50) and more than 50.1 µM in [1] (read-out: pIC50 (converted)). Further, the inhibition in data set [2] amounted to 65%.

`CCCCCCCCCCCCCC(=O)OC[C@H](O)[C@H]1OC(=O)C(O)=C1O`: the IC50 in data set [1] (read-out: IC50) is more than 5.8 µM; in data set [1] (read-out: pIC50 (converted)), 5.75 µM.

As to `O=C1O[C@H]([C@@H](O)CO)C(O)=C1O`, in data set [2], the inhibition turned out to be 80%.

As for `CC1=C(O)[C@@H](C/C(C)=C/CCC(C)/C=C/C=C(\C)CCCc2ccoc2)OC1=O` (stereo in doubt; A), the inhibition result in [3] was “Active”.

The term pIC50 denotes the IC50 on a negative log10 scale, so that one unit is a factor of ten. Regarding `CC1=C(O)[C@@H](C/C(C)=C/CCC(C)/C=C/C=C(\C)CCCc2ccoc2)OC1=O` (stereo in doubt; A) [PALINURIN], the IC50 was 2.6 µM in data set [1] (read-out: IC50); more than 100 µM at Casein kinase II [4]; more than 100 µM on Casein kinase II [5]; more than 100 µM in [6]; more than 100 µM in data set [7] (read-out: IC50); more than 100 µM in data set [7] (read-out: pIC50 (converted)). The IC50 was 1.6 µM in data set [8], more than 25 µM in data set [9] (read-out: IC50) and more than 25.1 µM in data set [9] (read-out: pIC50 (converted)). In data set [6], the pIC50 is less than 4.

Consider `CC1=C(O)[C@@H](C/C(C)=C/CCC(C)/C=C/C=C(\C)CCCc2ccoc2)OC1=O` (stereo in doubt; B), for which the inhibition entry in [3] is “Active”.

Regarding `CC1=C(O)[C@@H](C/C(C)=C/CCC(C)/C=C/C=C(\C)CCCc2ccoc2)OC1=O` (stereo in doubt; B) [PALINURIN], in data set [1] (read-out: IC50), the IC50 came out at 1.9 µM. Besides, in data set [10], the Activity result is reported as “Non-toxic”.

On to `CC1=C(O)/C(=C/[C@H](C)CCC/C(C)=C/CCc2coc(Cc3ccoc3)c2)OC1=O` [IRCININ 1], for which the IC50 in [1] (read-out: IC50) turned out to be 0.8 µM.

For the molecule `CC1=C(O)/C(=C/[C@H](C)CC/C=C(/C)CCCc2coc(Cc3ccoc3)c2)OC1=O` [IRCININ 2], the IC50 in [1] (read-out: IC50) came out at 2.3 µM.
